Reference: patent US20240358733A1, “APPLICATION OF TYPHANEOSIDE IN PREPARATION OF MEDICINE FOR URIC ACID-LOWERING AND/OR KIDNEY INJURY” (Institute of Chinese Materia Medica, China Academy of …, priority 2023, published 2024)

Legend:
rats with hyperuricemia [1] = experiment: Blood uric acid level in rats with adenine combined with ethambutol-induced hyperuricemia; type: in vivo, rat; settings: for Blood uric acid: serum, mean±SD, model group 144.43 ± 31.20
Description: There were 48 Male SPF grade SD rats, weighing 200-220 g, purchased from Beijing Vital River Laboratory Animal Technology Co., Ltd., license No. SCXK (Beijing) 2016-0006. The animals were housed in a barrier environment animal laboratory, with automatic temperature control (temperature 20-26° C.), relative humidity 40-70%, and full fresh air. Artificial light was adopted with a 12-hour light-dark cycle. Group experiments were started after 1 day of acclimatization. Animals were fed with standard rat pellet feed, provided by Beijing Keao Xieli Feed Co. Ltd., with purified water.
The rats were randomly divided into 6 groups of 8 rats each, which were control group, model group, typhaneoside low dose group (25 mg/kg) and typhaneoside high dose group (50 mg/kg), isorhamnetin low dose group (25 mg/kg) and isorhamnetin high dose group (50 mg/kg).
Adenine was purchased from Sigma-Aldrich (USA), and 0.5% CMC-Na was used to formulate adenine into a suspension at a concentration of 20 mg/mL, ready-to-use, with an administration volume of 5 mL/kg and a dosage of 100 mg/kg. Ethambutol hydrochloride tablets were purchased from Chengdu Jinhua Pharmaceutical Co., Ltd, and 0.5% CMC-Na was used to formulate ethambutol hydrochloride tablets into a suspension at a concentration of 50 mg/ml, ready-to-use, with an administration volume of 5 mL/kg and a dosage of 250 mg/kg. […]
Observation and detection indicators: fasting for 16 hours after the last administration, blood was collected from the abdominal aorta of rats in each group, centrifuged at 3500 rpm for 15 minutes after standing, separated and collected serum, and the content of uric acid in the serum was measured using an Automatic Chemical Analysis.
Statistical methods: data were expressed as mean±standard deviation (x±S) and analyzed by one-way ANOVA. […]

[2] = tested on: rats with hyperuricemic kidney injury; experiment: Kidney function biochemical indicators (serum BUN, SCr) in rats with hyperuricemic kidney injury; type: in vivo, rat; settings: for BUN / SCr: serum; for BUN: model group 11.87 ± 2.27; for SCr: model group 49.09 ± 9.42
Description: (§1) The establishment of the model as well as the experimental grouping and administration were the same as in Example 1.
(1) Kidney function biochemical indicators detection: the method of blood sampling and serum collection was the same as in Example 1, and an Automatic Chemical Analysis was used to detect the content of serum creatinine (SCr) by using the creatine oxidase method, and to detect the content of blood urea nitrogen (BUN) by using the urease method and the kinetic method.

rats with hyperuricemia [3] = experiment: Urate deposition in rat kidney tissues, hexamine silver staining; type: in vivo; settings: FIG. 1, hexamine silver staining, 25 and 50 mg/kg, in words
Description: as §1
(§2) (2) Pathological examination of kidney tissue: anesthetize rats, dissect, and remove kidney tissue. The kidney tissues were fixed with 10% neutral formalin. After sufficient fixation, sampling, gradient dehydration, xylene transparency, paraffin embedding, and preparation of 3 μm paraffin sections were performed according to routine procedures. The kidney tissue lesions as well as urate deposition in the kidney tissues were examined by light microscopy using HE (hematoxylin & eosin) staining and hexamine silver staining, respectively.

rats with hyperuricemia [4] = experiment: Pathological examination of rat kidney tissue, HE staining; type: in vivo; settings: FIG. 2, HE staining, in words
Description: as §1, §2

[5] = high dose 50 mg/kg by gavage once a day for 7 days
[6] = low dose 25 mg/kg by gavage once a day for 7 days

COc1cc(-c2oc3cc(O)cc(O)c3c(=O)c2O)ccc1O [Isorhamnetin, isorhamnetin]
Effect on the blood uric acid level compared with the model group (rats with hyperuricemia [1]; different doses (25 and 50 mg/kg), in words): did not show a significant reducing effect | Blood uric acid (rats with hyperuricemia [1]; [5]): 105.74 ± 42.62 µmol/L | Blood uric acid (rats with hyperuricemia [1]; [6]): 118.56 ± 26.76 µmol/L | Serum BUN level compared with the model group ([2]; 25 and 50 mg/kg, in words): did not show significant reduction | Serum SCr level compared with the model group ([2]; 25 and 50 mg/kg, in words): did not show significant reduction | BUN [2, 5]: 8.26 ± 3.99 mmol/L | SCr [2, 5]: 47.12 ± 12.00 µmol/L | BUN [2, 6]: 7.90 ± 2.48 mmol/L | SCr [2, 6]: 41.66 ± 5.72 µmol/L | Deposited urate crystals in kidney tissue compared with the model group (rats with hyperuricemia [3]): only slightly reduced | Kidney tissue pathological changes (rats with hyperuricemia [4]; high dose group 50 mg/kg): severe renal tubular dilatation and epithelial cell detachment were still observed | Kidney tissue pathological changes (rats with hyperuricemia [4]; low dose group 25 mg/kg): severe renal tubular dilatation and epithelial cell detachment were still observed
